Results taken from patent US10098870B2 (JENKEM TECHNOLOGY CO., LTD. (BEIJING), priority 2013, dated 2018).
Values joined by “and” are separate entries in the source; they are usually repeats but may differ in a detail not shown here. Equal values may be shown once.

What was measured:
[1] = test system: human hepatoma cell plc/prf/5; assay: Anti-tumor effect on xenograft tumor model of plc/prf/5 in nude mice (Example 6); conditions: for T/C (%) RTV / T/C (%) TW: vs physiological saline; for RTV / Tumor weight: 38th day, Mean ± SEM; for Tumor volume: mean ± SE
Description: The tumor cells were passaged with digestion by trypsin-EDTA twice a week. The cells in the exponential growth phase were collected, counted, and used for inoculation.
10 days later the mean tumor volume was desired to reach about 161 mm^3, the mice with a smaller or larger tumor were removed and the remaining 24 mice were divided into groups randomly according to tumor volume and administrated.
Wherein QW×4W represents intravenous injection once a week for 4 weeks, BIW×4W represents intravenous injection once every two weeks for 4 weeks, the same below.

[2] = Body weight, survival and tolerance of mice bearing plc/prf/5 (Example 6); assay type: in vivo, nude mouse; conditions: mean ± SE
Description: Wherein QW×4W represents intravenous injection once a week for 4 weeks, BIW×4W represents intravenous injection […] for 4 weeks, the same below. (2) Experimental Results

[3] = Body weight, survival and tolerance of mice bearing Calu-6 (Example 9); conditions: mean ± SE;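 further: nude mice bearing Calu-6 tumours, established by implanting 5.0×10^6 cells at the right shoulder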
Description: (§1) 5.0×10^6 of Calu-6 tumor cells were suspended in 0.1 ml of PBS, inoculated to each nude mouse at the right shoulder, and there were totally 34 mice inoculated.

[4] = test system: Calu-6 human lung cancer cell; assay: Anti-tumor effect on xenograft tumor model of Calu-6 in nude mice (Example 9); conditions: for T/C (%) RTV / T/C (%) TW: vs physiological saline; for RTV / Tumor weight: 42nd day, Mean ± SEM; for Tumor volume: mean ± SE;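 on all read-outs here: each nude mouse received 5.0×10^6 Calu-6 cells implanted at the right shoulder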
Description: Calu-6 cells were cultured with a monolayer in vitro in MEM medium supplied with heat-inactivated fetal bovine serum with a volume ratio of 10%, and an incubator at 37° C. with the air containing CO2 with a proportion of 5%. The tumor cells were passaged with digestion by trypsin-EDTA twice a week. The cells in the exponential growth phase were collected, counted, and used for inoculation.
as §1

[5] = Body weight, survival and tolerance of mice bearing H460 (Example 8); conditions: mean ± SE
Description: 5.0×10^6 of H460 tumor cells were suspended in 0.1 ml of PBS, inoculated to each nude mouse at the right shoulder, and there were totally 34 mice inoculated. 8 days later the mean tumor volume was desired to reach about 143 mm^3, the mice with a smaller or larger tumor were removed and the remaining 24 mice were divided into groups randomly according to tumor volume and administrated.

[6] = day 10 after inoculation, 30 mg/kg i.v. BIW×4W
[7] = day 10 after inoculation, 45 mg/kg i.v. QW×4W
[8] = day 13 after inoculation, 30 mg/kg i.v. BIW×4W
[9] = day 13 after inoculation, 45 mg/kg i.v. QW×4W
[10] = day 17 after inoculation, 30 mg/kg i.v. BIW×4W
[11] = day 17 after inoculation, 45 mg/kg i.v. QW×4W
[12] = day 20 after inoculation, 30 mg/kg i.v. BIW×4W
[13] = day 20 after inoculation, 45 mg/kg i.v. QW×4W
[14] = day 24 after inoculation, 30 mg/kg i.v. BIW×4W
[15] = day 24 after inoculation, 45 mg/kg i.v. QW×4W
[16] = day 27 after inoculation, 30 mg/kg i.v. BIW×4W
[17] = day 27 after inoculation, 45 mg/kg i.v. QW×4W
[18] = day 31 after inoculation, 30 mg/kg i.v. BIW×4W
[19] = day 31 after inoculation, 45 mg/kg i.v. QW×4W
[20] = day 34 after inoculation, 30 mg/kg i.v. BIW×4W
[21] = day 34 after inoculation, 45 mg/kg i.v. QW×4W
[22] = day 38 after inoculation, 30 mg/kg i.v. BIW×4W
[23] = day 38 after inoculation, 45 mg/kg i.v. QW×4W
[24] = day 14 after inoculation, 30 mg/kg i.v. BIW×4W
[25] = day 14 after inoculation, 45 mg/kg i.v. QW×4W
[26] = day 21 after inoculation, 30 mg/kg i.v. BIW×4W
[27] = day 21 after inoculation, 45 mg/kg i.v. QW×4W
[28] = day 28 after inoculation, 30 mg/kg i.v. BIW×4W
[29] = day 28 after inoculation, 45 mg/kg i.v. QW×4W
[30] = day 35 after inoculation, 30 mg/kg i.v. BIW×4W
[31] = day 35 after inoculation, 45 mg/kg i.v. QW×4W

Substance: monomethoxy polyethylene glycol (20K)-glutamic acid dipeptide-rapamycin conjugate [LPR-2]
- TGD (to 1,000 mm^3) ([1]; 30 mg/kg i.v. BIW×4W): >12
- T/C (%) RTV ([1]; 30 mg/kg i.v. BIW×4W): 29%
- T/C (%) TW ([1]; 30 mg/kg i.v. BIW×4W): 27%
- TGD (to 1,000 mm^3) ([1]; 45 mg/kg i.v. QW×4W): >12
- T/C (%) RTV ([1]; 45 mg/kg i.v. QW×4W): 46%
- T/C (%) TW ([1]; 45 mg/kg i.v. QW×4W): 45%
- anti-tumor effect (in words) ([1]; 5-FU 25 mg/kg, LPR-2 30 and 45 mg/kg): significant anti-tumor effect
- RTV ([1]; 30 mg/kg i.v. BIW×4W): 3.48 ± 0.68
- Tumor weight ([1]; 30 mg/kg i.v. BIW×4W): 517 ± 67 mg
- RTV ([1]; 45 mg/kg i.v. QW×4W): 5.61 ± 0.67
- Tumor weight ([1]; 45 mg/kg i.v. QW×4W): 845 ± 87 mg
- Tumor volume [1, 6]: 171 ± 15 mm^3
- Tumor volume [1, 7]: 171 ± 19 mm^3
- Tumor volume [1, 8]: 176 ± 11 mm^3
- Tumor volume [1, 9]: 180 ± 25 mm^3
- Tumor volume [1, 10]: 217 ± 25 mm^3
- Tumor volume [1, 11]: 234 ± 28 mm^3
- Tumor volume [1, 12]: 260 ± 30 mm^3
- Tumor volume [1, 13]: 257 ± 24 mm^3
- Tumor volume [1, 14]: 303 ± 32 mm^3
- Tumor volume [1, 15]: 399 ± 25 mm^3
- Tumor volume [1, 16]: 317 ± 42 mm^3
- Tumor volume [1, 17]: 496 ± 39 mm^3
- Tumor volume [1, 18]: 395 ± 39 mm^3
- Tumor volume [1, 19]: 607 ± 60 mm^3
- Tumor volume [1, 20]: 437 ± 44 mm^3
- Tumor volume [1, 21]: 640 ± 93 mm^3
- Tumor volume ([1]; day 38 after inoculation, 30 mg/kg i.v. BIW×4W, 30 mg/kg): 553 mm^3 and 553 ± 63 mm^3
- Body weight of animal [2, 6]: 19.9 ± 0.5 g
- Body weight of animal [2, 7]: 19.8 ± 0.5 g
- Body weight of animal [2, 8]: 19.6 ± 0.8 g
- Body weight of animal [2, 9]: 18.9 ± 0.5 g
- Body weight of animal [2, 10]: 20.7 ± 0.7 g
- Body weight of animal [2, 11]: 20.2 ± 0.3 g
- Body weight of animal [2, 12]: 20.4 ± 0.6 g
- Body weight of animal [2, 13]: 19.7 ± 0.3 g
- Body weight of animal [2, 14]: 20.6 ± 0.7 g
- Body weight of animal [2, 15]: 21.1 ± 0.3 g
- Body weight of animal [2, 16]: 20.5 ± 0.6 g
- Body weight of animal [2, 17]: 20.7 ± 0.2 g
- Body weight of animal [2, 18]: 20.1 ± 0.6 g
- Body weight of animal [2, 19]: 21.0 ± 0.2 g
- Body weight of animal [2, 20]: 19.5 ± 0.6 g
- Body weight of animal [2, 21]: 19.7 ± 0.5 g
- Body weight of animal [2, 22]: 19.8 ± 0.7 g
- Body weight of animal [2, 23]: 20.7 ± 0.3 g
- Body weight of animal [3, 24]: 20.9 ± 0.4 g
- Body weight of animal [3, 25]: 20.6 ± 0.4 g
- Body weight of animal [3, 10]: 21.0 ± 0.4 g
- Body weight of animal [3, 11]: 20.0 ± 0.4 g
- Body weight of animal [3, 26]: 21.7 ± 0.4 g
- Body weight of animal [3, 27]: 19.9 ± 0.6 g
- Body weight of animal [3, 14]: 21.6 ± 0.3 g
- Body weight of animal [3, 15]: 20.9 ± 0.5 g
- Body weight of animal [3, 28]: 22.4 ± 0.4 g
- Body weight of animal [3, 29]: 21.3 ± 0.6 g
- Body weight of animal [3, 18]: 21.6 ± 0.4 g
- Body weight of animal [3, 19]: 20.7 ± 0.6 g
- Body weight of animal [3, 30]: 22.2 ± 0.4 g
- Body weight of animal [3, 31]: 21.8 ± 0.6 g
- Body weight of animal [3, 22]: 22.3 ± 0.4 g
- Body weight of animal ([3]; day 42 after inoculation, 30 mg/kg i.v. BIW×4W): 22.4 ± 0.3 g
- Body weight of animal ([3]; day 42 after inoculation, 45 mg/kg i.v. QW×4W): 21.5 ± 0.5 g
- TGD (to 1,000 mm^3) ([4]; 30 mg/kg i.v. BIW×4W): >8
- T/C (%) RTV ([4]; 30 mg/kg i.v. BIW×4W): 31%
- T/C (%) TW ([4]; 30 mg/kg i.v. BIW×4W): 28%
- TGD (to 1,000 mm^3) ([4]; 45 mg/kg i.v. QW×4W): >8
- T/C (%) RTV ([4]; 45 mg/kg i.v. QW×4W): 38%
- T/C (%) TW ([4]; 45 mg/kg i.v. QW×4W): 37%
- RTV ([4]; 30 mg/kg i.v. BIW×4W): 4.39 ± 0.59
- Tumor weight ([4]; 30 mg/kg i.v. BIW×4W): 449 ± 89 mg
- RTV ([4]; 45 mg/kg i.v. QW×4W): 5.41 ± 0.51
- Tumor weight ([4]; 45 mg/kg i.v. QW×4W): 602 ± 83 mg
- Tumor volume [4, 24]: 139 ± 18 mm^3
- Tumor volume [4, 25]: 137 ± 22 mm^3
- Tumor volume [4, 10]: 160 ± 25 mm^3
- Tumor volume [4, 11]: 152 ± 25 mm^3
- Tumor volume [4, 26]: 201 ± 40 mm^3
- Tumor volume [4, 27]: 204 ± 38 mm^3
- Tumor volume [4, 14]: 241 ± 50 mm^3
- Tumor volume [4, 15]: 245 ± 40 mm^3
- Tumor volume [4, 28]: 274 ± 57 mm^3
- Tumor volume [4, 29]: 293 ± 44 mm^3
- Tumor volume [4, 18]: 335 ± 76 mm^3
- Tumor volume [4, 19]: 323 ± 45 mm^3
- Tumor volume [4, 30]: 422 ± 108 mm^3
- Tumor volume [4, 31]: 436 ± 74 mm^3
- Tumor volume [4, 22]: 504 ± 119 mm^3
- Tumor volume [4, 23]: 518 ± 87 mm^3
- Tumor volume ([4]; day 42 after inoculation, 30 mg/kg i.v. BIW×4W, 30 mg/kg): 627 ± 145 mm^3
- Tumor volume ([4]; day 42 after inoculation, 45 mg/kg i.v. QW×4W, 45 mg/kg): 720 ± 106 mm^3
- Body weight of animal ([5]; day 8 after inoculation, 30 mg/kg i.v. BIW×3W): 20.5 ± 0.5 g
- Body weight of animal ([5]; day 8 after inoculation, 45 mg/kg i.v. QW×3W): 20.2 ± 0.4 g
- Body weight of animal ([5]; day 12 after inoculation, 30 mg/kg i.v. BIW×3W): 20.3 ± 0.5 g
- Body weight of animal ([5]; day 12 after inoculation, 45 mg/kg i.v. QW×3W): 19.8 ± 0.3 g
- Body weight of animal ([5]; day 15 after inoculation, 30 mg/kg i.v. BIW×3W): 20.7 ± 0.4 g
- Body weight of animal ([5]; day 15 after inoculation, 45 mg/kg i.v. QW×3W): 20.9 ± 0.3 g
- Body weight of animal ([5]; day 19 after inoculation, 30 mg/kg i.v. BIW×3W): 21.0 ± 0.5 g
- Body weight of animal ([5]; day 19 after inoculation, 45 mg/kg i.v. QW×3W): 20.7 ± 0.3 g
- Body weight of animal ([5]; day 22 after inoculation, 30 mg/kg i.v. BIW×3W): 20.7 ± 0.4 g
- Body weight of animal ([5]; day 22 after inoculation, 45 mg/kg i.v. QW×3W): 20.4 ± 0.3 g
- Body weight of animal ([5]; day 26 after inoculation, 30 mg/kg i.v. BIW×3W): 20.9 ± 0.5 g
- Body weight of animal ([5]; day 26 after inoculation, 45 mg/kg i.v. QW×3W): 21.4 ± 0.3 g
- Body weight of animal ([5]; day 29 after inoculation, 30 mg/kg i.v. BIW×3W): 21.1 ± 0.4 g
- Body weight of animal ([5]; day 29 after inoculation, 45 mg/kg i.v. QW×3W): 22.1 ± 0.3 g
